Reference: ChEMBL document CHEMBL4507273 (2021)

Assays:
[1] = target: Kappa-type opioid receptor (Homo sapiens, UniProt P41145); assay: GPCRScan assay: inhibition of KOR; parameters: radioligand conc. used [nm] 0.6 – 1.2, parental cells stable HEK
Histamine H4 receptor = Histamine H4 receptor (Homo sapiens, UniProt Q9H3N8); assay: GPCRScan assay: inhibition of H4; parameters: radioligand conc. used [nm] 1.0 – 5.0, parental cells HEK T
[2] = target: BDNF/NT-3 growth factors receptor (Homo sapiens) (UniProt Q16620); assay: TrkB(h) Eurofins Kinase panel; settings: Compound concentration 1.0 uM
[3] = target: Serine/threonine-protein kinase Chk2 (Homo sapiens) (UniProt O96017); assay: CHK2(h) Eurofins Kinase panel; settings: Compound concentration 1.0 uM
Chain of Serine/threonine-protein kinase Chk2 (Homo sapiens) (O96017 whole entry, the tested form may be a part): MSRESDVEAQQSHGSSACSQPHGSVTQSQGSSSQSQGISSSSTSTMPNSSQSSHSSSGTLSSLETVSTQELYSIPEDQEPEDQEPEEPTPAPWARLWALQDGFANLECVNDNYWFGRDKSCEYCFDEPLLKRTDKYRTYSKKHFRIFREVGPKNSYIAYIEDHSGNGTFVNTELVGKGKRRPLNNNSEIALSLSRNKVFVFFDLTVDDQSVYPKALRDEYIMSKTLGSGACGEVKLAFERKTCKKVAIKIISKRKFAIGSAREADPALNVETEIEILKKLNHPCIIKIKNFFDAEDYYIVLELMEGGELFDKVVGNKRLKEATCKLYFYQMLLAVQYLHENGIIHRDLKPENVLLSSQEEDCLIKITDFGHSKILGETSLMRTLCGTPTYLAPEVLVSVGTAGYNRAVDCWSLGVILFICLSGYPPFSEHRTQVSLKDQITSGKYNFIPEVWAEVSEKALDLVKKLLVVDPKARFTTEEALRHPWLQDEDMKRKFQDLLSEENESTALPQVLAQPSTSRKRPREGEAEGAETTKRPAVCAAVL

[4] = target: PAS domain-containing serine/threonine-protein kinase (Homo sapiens) (UniProt Q96RG2); assay: PASK(h) Eurofins Kinase panel; settings: Compound concentration 1.0 uM
Chain of PAS domain-containing serine/threonine-protein kinase (Homo sapiens) (Q96RG2 whole entry, the tested form may be a part): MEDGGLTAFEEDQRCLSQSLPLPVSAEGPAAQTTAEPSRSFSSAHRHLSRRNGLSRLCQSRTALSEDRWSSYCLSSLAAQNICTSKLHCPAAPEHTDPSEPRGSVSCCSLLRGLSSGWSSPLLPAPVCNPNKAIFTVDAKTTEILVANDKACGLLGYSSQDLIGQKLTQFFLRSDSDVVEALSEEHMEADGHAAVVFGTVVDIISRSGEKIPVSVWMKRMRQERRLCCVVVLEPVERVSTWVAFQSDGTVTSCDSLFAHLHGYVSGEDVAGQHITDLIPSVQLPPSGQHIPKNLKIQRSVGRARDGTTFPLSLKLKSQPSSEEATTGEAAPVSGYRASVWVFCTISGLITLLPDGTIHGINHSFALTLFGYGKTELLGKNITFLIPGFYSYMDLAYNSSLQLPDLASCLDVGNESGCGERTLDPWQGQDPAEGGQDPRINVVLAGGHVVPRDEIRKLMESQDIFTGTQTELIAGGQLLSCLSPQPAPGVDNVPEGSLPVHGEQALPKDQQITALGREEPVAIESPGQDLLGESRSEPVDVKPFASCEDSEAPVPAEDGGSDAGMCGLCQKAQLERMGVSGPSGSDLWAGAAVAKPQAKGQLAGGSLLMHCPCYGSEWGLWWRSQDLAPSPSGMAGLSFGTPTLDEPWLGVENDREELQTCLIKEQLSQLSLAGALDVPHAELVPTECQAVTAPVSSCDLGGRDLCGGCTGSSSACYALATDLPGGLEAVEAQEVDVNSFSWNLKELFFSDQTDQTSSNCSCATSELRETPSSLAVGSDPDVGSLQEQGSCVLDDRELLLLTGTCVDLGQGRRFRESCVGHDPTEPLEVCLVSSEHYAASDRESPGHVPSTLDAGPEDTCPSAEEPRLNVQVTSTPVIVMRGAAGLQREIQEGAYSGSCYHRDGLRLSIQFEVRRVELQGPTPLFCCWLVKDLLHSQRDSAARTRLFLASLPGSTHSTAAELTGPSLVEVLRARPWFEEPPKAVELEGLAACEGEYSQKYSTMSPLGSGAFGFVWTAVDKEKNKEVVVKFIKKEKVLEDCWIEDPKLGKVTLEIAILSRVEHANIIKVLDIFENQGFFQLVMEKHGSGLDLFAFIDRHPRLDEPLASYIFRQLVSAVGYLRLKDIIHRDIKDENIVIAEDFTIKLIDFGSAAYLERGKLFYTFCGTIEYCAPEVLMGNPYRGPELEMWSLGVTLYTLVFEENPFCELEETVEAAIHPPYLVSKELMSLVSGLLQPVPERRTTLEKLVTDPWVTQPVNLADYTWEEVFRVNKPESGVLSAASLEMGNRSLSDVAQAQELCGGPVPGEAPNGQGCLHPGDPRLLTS

[5] = target: Cyclin-dependent kinase 1/cyclin B (Homo sapiens) (UniProt P06493+P14635+Q8WWL7+O95067); assay: CDK1/cyclinB(h) Eurofins Kinase panel; assay type: protein-complex assay; settings: Compound concentration 1.0 uM
[6] = target: Tyrosine-protein kinase receptor UFO (Homo sapiens) (UniProt P30530); assay: Axl(h) Eurofins Kinase panel; settings: Compound concentration 1.0 uM
Chain of Tyrosine-protein kinase receptor UFO (Homo sapiens) (P30530 whole entry): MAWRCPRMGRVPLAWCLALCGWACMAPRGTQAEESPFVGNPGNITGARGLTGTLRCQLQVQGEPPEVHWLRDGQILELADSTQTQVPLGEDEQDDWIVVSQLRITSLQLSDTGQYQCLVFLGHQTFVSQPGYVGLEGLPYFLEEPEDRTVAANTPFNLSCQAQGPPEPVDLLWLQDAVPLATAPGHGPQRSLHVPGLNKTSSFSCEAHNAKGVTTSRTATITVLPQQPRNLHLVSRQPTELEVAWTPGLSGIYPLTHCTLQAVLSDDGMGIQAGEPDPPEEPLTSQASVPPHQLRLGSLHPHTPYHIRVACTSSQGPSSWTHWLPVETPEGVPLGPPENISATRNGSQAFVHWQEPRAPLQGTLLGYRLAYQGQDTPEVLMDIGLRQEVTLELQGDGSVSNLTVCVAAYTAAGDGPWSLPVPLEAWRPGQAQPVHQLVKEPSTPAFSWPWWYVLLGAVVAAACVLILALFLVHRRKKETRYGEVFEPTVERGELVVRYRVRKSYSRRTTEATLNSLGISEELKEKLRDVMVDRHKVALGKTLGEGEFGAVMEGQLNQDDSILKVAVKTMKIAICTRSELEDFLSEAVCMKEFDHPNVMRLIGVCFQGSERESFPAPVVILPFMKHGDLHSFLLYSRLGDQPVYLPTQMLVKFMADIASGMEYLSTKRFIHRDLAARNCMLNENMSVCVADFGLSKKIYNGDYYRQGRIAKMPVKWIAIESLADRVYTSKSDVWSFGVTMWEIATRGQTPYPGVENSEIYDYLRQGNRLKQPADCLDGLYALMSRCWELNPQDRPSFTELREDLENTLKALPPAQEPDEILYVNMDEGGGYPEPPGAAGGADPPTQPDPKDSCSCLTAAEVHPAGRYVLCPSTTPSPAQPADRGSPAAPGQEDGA

[7] = target: Serine/threonine-protein kinase 26 (Homo sapiens) (UniProt Q9P289); assay: MST4(h) Eurofins Kinase panel; settings: Compound concentration 1.0 uM
Chain of Serine/threonine-protein kinase 26 (Homo sapiens) (Q9P289 2-416 limits assumed): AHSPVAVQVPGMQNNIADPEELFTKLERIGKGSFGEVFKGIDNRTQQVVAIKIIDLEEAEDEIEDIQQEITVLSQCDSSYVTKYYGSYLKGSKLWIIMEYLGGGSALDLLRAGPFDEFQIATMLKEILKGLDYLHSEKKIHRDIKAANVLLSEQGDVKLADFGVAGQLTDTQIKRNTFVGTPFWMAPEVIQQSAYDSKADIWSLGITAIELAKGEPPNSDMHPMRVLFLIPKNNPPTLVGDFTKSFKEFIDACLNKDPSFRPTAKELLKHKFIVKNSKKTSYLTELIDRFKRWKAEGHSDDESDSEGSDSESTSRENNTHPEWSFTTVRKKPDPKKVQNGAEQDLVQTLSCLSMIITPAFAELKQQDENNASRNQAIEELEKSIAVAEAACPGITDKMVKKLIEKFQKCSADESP

[8] = target: T1, Protein kinase C epsilon type (Homo sapiens) (UniProt Q02156); assay: PKCepsilon(h) Eurofins Kinase panel; settings: Compound concentration 1.0 uM
T1 sequence (whole entry): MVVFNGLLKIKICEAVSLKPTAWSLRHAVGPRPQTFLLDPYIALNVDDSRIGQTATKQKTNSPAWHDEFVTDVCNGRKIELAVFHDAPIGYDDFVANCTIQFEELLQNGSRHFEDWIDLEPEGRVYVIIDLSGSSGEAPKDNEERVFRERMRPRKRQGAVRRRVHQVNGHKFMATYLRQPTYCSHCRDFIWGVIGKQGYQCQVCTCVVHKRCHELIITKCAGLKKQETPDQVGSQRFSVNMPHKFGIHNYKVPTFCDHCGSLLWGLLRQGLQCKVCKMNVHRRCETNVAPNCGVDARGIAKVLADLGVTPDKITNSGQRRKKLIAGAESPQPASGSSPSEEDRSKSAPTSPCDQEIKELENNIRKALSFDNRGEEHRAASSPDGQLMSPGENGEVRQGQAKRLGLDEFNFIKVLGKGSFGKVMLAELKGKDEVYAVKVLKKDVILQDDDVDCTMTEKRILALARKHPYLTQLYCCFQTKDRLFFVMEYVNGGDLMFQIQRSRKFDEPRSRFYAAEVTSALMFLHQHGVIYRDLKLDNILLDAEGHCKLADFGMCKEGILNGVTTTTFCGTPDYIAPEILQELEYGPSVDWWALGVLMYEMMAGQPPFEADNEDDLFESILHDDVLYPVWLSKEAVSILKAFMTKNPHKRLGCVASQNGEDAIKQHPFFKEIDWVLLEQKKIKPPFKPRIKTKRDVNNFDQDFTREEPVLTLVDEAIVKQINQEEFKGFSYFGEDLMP

Rattus norvegicus = organism: Rattus norvegicus; settings: Compound concentration 10.0 uM
[9] = target: T2, Alpha-1A adrenergic receptor (Homo sapiens) (UniProt P35348); settings: Rattus norvegicus; Compound concentration 10.0 uM
T2 sequence (whole entry): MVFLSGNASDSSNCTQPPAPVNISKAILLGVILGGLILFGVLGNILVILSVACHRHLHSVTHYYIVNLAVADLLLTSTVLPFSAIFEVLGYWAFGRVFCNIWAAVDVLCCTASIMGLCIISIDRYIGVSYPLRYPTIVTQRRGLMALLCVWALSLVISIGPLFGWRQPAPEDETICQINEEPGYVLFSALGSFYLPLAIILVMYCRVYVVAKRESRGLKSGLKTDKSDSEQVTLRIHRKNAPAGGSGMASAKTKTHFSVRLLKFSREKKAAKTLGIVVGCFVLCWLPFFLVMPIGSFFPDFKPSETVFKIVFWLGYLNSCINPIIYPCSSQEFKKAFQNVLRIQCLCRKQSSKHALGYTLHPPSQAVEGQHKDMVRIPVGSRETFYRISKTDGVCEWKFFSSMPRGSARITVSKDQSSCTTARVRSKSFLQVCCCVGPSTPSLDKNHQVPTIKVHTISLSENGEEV

[10] = target: T3, Muscarinic acetylcholine receptor M1 (Homo sapiens) (UniProt P11229); settings: Compound concentration 10.0 uM
T3 sequence (whole entry): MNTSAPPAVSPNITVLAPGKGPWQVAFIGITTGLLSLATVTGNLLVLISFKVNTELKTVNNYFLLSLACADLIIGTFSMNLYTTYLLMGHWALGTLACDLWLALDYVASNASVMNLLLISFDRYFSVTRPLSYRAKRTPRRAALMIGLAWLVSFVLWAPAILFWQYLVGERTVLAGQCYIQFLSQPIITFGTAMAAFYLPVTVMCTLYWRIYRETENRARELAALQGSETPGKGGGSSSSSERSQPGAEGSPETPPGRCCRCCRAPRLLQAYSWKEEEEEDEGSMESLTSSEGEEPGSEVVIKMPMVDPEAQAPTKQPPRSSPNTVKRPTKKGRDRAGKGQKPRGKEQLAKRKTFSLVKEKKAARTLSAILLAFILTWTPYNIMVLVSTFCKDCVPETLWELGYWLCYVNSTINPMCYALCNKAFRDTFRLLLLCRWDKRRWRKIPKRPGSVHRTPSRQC

[11] = target: T4, 5-hydroxytryptamine receptor 1A (Homo sapiens) (UniProt P08908); settings: Compound concentration 10.0 uM
T4 sequence (whole entry): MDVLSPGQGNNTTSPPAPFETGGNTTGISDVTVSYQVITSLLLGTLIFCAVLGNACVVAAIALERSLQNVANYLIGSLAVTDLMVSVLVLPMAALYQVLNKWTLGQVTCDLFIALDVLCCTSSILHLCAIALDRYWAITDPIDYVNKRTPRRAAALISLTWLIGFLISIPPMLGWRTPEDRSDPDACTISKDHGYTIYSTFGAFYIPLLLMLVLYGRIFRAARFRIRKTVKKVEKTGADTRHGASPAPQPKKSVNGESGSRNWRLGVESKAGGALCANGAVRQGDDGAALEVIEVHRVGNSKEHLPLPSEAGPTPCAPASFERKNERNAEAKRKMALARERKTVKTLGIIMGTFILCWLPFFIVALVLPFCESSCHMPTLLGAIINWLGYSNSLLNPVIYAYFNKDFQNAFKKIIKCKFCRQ

[12] = target: 5-hydroxytryptamine receptor 2B (Homo sapiens, UniProt P41595); settings: Compound concentration 10.0 uM
Chain of 5-hydroxytryptamine receptor 2B (P41595 whole entry): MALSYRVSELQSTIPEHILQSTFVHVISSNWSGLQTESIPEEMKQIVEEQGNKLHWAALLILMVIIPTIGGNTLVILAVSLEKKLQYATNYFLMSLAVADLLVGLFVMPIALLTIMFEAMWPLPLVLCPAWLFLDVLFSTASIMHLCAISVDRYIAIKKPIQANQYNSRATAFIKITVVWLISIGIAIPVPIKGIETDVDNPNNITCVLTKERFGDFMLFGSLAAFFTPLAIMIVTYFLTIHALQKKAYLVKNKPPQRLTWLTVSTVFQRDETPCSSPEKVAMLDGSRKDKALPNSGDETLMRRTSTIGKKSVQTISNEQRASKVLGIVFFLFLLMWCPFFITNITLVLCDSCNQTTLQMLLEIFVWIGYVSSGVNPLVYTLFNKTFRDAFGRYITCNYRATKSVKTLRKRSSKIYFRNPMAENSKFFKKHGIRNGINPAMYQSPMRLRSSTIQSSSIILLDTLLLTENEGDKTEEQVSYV

[13] = target: Sodium-dependent noradrenaline transporter (Homo sapiens, UniProt P23975); settings: Compound concentration 10.0 uM
Chain of Sodium-dependent noradrenaline transporter (P23975 whole entry): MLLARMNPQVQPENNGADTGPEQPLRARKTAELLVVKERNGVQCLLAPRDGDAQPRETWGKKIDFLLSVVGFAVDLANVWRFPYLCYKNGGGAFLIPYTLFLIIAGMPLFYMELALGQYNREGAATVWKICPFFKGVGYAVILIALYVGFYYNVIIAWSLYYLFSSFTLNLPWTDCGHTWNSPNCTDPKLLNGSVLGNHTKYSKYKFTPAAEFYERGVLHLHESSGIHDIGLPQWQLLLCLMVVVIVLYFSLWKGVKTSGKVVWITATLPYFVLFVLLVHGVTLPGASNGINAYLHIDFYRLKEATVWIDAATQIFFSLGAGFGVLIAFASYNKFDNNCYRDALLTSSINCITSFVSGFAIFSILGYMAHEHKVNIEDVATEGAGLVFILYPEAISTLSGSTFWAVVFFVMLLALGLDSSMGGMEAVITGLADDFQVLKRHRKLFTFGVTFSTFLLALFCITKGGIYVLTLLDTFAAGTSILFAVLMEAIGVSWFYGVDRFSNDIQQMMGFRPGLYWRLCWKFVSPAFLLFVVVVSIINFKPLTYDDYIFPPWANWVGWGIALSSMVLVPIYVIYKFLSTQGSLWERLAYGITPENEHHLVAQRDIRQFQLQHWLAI

Chain of Kappa-type opioid receptor (P41145 whole entry): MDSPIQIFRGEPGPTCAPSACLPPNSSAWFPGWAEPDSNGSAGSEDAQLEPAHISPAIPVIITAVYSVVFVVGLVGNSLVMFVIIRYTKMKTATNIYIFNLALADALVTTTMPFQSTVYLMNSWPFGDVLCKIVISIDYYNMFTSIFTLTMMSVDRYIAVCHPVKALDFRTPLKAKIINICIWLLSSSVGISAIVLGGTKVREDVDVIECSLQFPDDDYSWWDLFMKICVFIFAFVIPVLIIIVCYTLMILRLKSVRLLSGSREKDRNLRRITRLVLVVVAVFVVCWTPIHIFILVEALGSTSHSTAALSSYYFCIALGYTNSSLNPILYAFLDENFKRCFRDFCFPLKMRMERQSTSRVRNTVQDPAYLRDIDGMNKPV
Chain of Histamine H4 receptor (Q9H3N8 whole entry): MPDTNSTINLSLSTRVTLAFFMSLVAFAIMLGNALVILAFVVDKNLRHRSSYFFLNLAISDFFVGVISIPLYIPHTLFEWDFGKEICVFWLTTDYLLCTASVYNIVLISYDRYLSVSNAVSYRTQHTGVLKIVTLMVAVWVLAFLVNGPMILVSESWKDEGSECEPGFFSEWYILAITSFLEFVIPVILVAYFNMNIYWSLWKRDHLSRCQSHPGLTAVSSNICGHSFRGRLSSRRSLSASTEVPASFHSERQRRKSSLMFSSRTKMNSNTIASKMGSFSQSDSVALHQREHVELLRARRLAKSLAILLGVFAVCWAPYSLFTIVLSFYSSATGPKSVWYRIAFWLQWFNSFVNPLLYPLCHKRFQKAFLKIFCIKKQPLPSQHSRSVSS

`CNCc1ccccc1-c1csc([C@H](C)Nc2nc(C)nc3cc(OC)c(OC)cc23)c1` [BAY-294] was tested, and the Ki ([1]; read-out: Ki) was 841 nM, the Ki ([1]; read-out: pKi (converted)) was 822 nM and the Ki (Histamine H4 receptor) was 1890 nM.
`CNCc1ccccc1-c1csc([C@@H](C)Nc2nc(C)nc3cc(OC)c(OC)cc23)c1` [BAY-293] gave a % residual kinase activity [2] of 79%, a % residual kinase activity [3] of 80% and a % residual kinase activity [4] of 84%. For the same compound, the % residual kinase activity [5] was 87%, the % residual kinase activity [6] was 88% and the % residual kinase activity [7] was 88%. It also gave a % residual kinase activity [8] of 88%, an inhibition (Rattus norvegicus) of 13.1% and an inhibition [9] of 106%. It also gave an inhibition [10] of 94%, an inhibition [11] of 81% and an inhibition [12] of 100%. It also gave an inhibition [13] of 86%.
